These results are taken from paper PMC8177813 (Journal of pharmaceutical sciences, 2020).

Structures can show the parent of a compound that is named as a salt. Where two headings read alike, the source gives them in different places. Marks after values point to notes of the source that are not given here.

For data set [1], the target named is T1, human OAT3 (Homo sapiens, UniProt Q8TCC7).
T1 sequence (Q8TCC7 1-542): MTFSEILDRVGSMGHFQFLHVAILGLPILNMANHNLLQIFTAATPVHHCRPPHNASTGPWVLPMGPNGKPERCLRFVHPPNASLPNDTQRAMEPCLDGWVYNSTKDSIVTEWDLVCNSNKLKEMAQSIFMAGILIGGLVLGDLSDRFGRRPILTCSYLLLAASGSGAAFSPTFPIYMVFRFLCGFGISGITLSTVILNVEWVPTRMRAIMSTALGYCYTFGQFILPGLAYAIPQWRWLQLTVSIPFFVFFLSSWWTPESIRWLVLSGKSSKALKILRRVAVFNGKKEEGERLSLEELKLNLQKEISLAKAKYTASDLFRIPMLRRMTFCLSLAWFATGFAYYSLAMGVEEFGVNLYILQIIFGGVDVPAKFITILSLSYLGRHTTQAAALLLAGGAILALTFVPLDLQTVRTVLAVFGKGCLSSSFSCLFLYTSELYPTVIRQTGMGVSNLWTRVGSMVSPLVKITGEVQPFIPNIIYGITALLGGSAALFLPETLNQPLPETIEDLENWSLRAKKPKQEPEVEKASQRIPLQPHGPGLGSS
As to the kind of experiment: cell-based.

The conditions of data set [2]: cited from earlier work; for Unbound Fraction / Cmax: plasma.
A further data set addresses T2, human OAT1 (Homo sapiens, UniProt Q4U2R8).
T2 sequence (Q4U2R8 1-563): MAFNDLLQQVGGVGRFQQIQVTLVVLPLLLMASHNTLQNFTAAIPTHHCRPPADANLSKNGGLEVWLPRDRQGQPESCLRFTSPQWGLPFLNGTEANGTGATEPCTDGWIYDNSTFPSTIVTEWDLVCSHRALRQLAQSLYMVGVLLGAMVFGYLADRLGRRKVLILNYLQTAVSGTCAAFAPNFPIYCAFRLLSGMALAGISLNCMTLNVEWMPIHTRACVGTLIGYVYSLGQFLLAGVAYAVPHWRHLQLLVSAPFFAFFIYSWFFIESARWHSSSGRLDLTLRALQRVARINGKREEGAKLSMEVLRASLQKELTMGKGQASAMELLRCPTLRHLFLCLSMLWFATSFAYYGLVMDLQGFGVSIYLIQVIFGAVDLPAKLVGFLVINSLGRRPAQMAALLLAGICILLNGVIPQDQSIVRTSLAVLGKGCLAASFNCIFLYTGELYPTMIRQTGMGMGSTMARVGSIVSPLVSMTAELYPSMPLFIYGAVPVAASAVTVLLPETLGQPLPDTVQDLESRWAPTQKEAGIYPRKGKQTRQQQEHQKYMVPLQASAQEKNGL
In words: Inhibition of OAT1-mediated 6-carboxyfluorescein.

For data set [3], the target named is T1, human OAT3.
The conditions of data set [4]: in vivo.
The target of data set [5] is T1, human OAT3. As to the kind of experiment: Inhibition of OAT3-mediated 6-carboxyfluorescein. The note with it: for Ki: read-out: Ki (OAT3).
The conditions of data set [6]: cited from earlier work.
The conditions of data set [7]: cited from earlier work. This is another data set of the same source.
The mark [8] stands for this setting: ref https://doi.org/10.1002/cpdd.132.
The mark [9] stands for this setting: ref https://doi.org/10.1002/j.1552–4604.1993.tb04699.x.
Setting [10] is: ref https://doi.org/10.1124/jpet.110.165852.

In the case of `CCCCc1nc(Cl)c(CO)n1Cc1ccc(-c2ccccc2-c2nn[nH]n2)cc1` [Losartan, reference compound], the Ki (as a rule, a measure of affinity in units of concentration, obtained from inhibition or displacement) at human OAT3 [1] worked out at 360 nM; at human OAT1 it was 11400 nM. The “Unbound Fraction” value in data set [2] (ref Drugbank (https://www.drugbank.ca/drugs/DB00678)) is recorded as 1.4%^d.
Turning to `C[C@]12CC[C@@H]3c4ccc(OS(=O)(=O)O)cc4CC[C@H]3[C@@H]1CCC2=O` [Estrone sulfate, reference compound], on human OAT3 [3], the affinity corresponds to a Ki of 1000 nM.
Turning to `C[C@]12CC[C@H](OS(=O)(=O)O)CC1=CC[C@@H]1[C@@H]2CC[C@]2(C)C(c3cccnc3)=CC[C@@H]12` [Abiraterone sulfate], the “Cmax,u” value in data set [4] stood at 0.25 µM. In addition, the Ki on human OAT3 [5] worked out at 1830 nM; at human OAT1 (read-out: Ki (OAT1)) it was 38200 nM. Also, the Cmax (in general, the peak of the concentration-time curve) in data set [2] (setting [8]) is 25 µM.
Consider `CC1=C(CC(=O)O)c2cc(F)ccc2/C1=C\c1ccc([S+](C)[O-])cc1` (stereo not drawn) [Sulindac, reference compound], for which the Ki at human OAT3 [1] is 1650 nM; at human OAT1, 56800 nM. The “Unbound Fraction” value in data set [2] (setting [9]) is on record as 6.78%^a.
With `C[C@]12CC[C@H](OS(=O)(=O)O)CC1=CC[C@@H]1[C@@H]2CC[C@]2(C)C(c3ccc[n+]([O-])c3)=CC[C@@H]12` [Abiraterone N-oxide sulfate], the “Cmax,u” value in data set [4] stood at 0.092 µM. For the same compound, the Ki is 1360 nM at human OAT3 [5] and > 100000 nM on human OAT1 (read-out: Ki (OAT1), HEK293 cells stably transfected with OAT1, 2 μM 6CF, 3 min, 37 °C, […]). Further, the Cmax in data set [2] (setting [8]) is 9.2 µM.
On to `C[C@]12CC[C@H](O)CC1=CC[C@@H]1[C@@H]2CC[C@]2(C)C(c3cccnc3)=CC[C@@H]12` [Abiraterone, reference compound], for which the Ki at human OAT3 [1] and on human OAT1 was > 20000 nM in each case. Also, in data set [2] (setting [8]), the Cmax is 0.37 µM. The “basic pKa” value in data set [6] is listed as 5.19.
Turning to `CCCN(CCC)S(=O)(=O)c1ccc(C(=O)O[C@@H]2O[C@H](C(=O)O)[C@@H](O)[C@H](O)[C@H]2O)cc1`, the affinity at human OAT3 [3], expressed as Ki, was 19900 nM.
Turning to `CC(O)c1ccc(CCOc2ccc(CC3SC(=O)NC3=O)cc2)nc1` (stereo not drawn) [Hydroxy pioglitazone], the Ki was determined as 1370 nM on human OAT3 [1] and 27600 nM on human OAT1.
For `O=c1n(CCCN2CCN(c3cccc(Cl)c3)CC2)nc2ccccn12` [Trazodone, reference compound] the same measures were 2940 nM and 19900 nM.
Take `CCCCc1nc(Cl)c(C(=O)O)n1Cc1ccc(-c2ccccc2-c2nn[nH]n2)cc1` [Losartan carboxylic acid]: at human OAT3 [5] (metabolite versus losartan), the “times more potent in inhibiting OAT3 than parent drug” value amounted to 3.6 times. In addition, the Ki on human OAT3 [1] was 100 nM; on human OAT1 it was 690 nM. In data set [2] (no reference given), the plasma unbound fraction result is listed as “lower than 1%”. The “times more potent in inhibiting OAT1 than parent drug” value at human OAT1 (metabolite versus losartan) is on record as 16.5 times.
As for `CC1=C(CC(=O)O)c2cc(F)ccc2/C1=C\c1ccc(S(C)(=O)=O)cc1` [Sulindac sulfone], the inhibition constant (Ki) on human OAT3 [5] worked out at 600 nM; at human OAT1 (read-out: Ki (OAT1)), 23000 nM. Besides, the Cmax in data set [2] (setting [9]) is 4.48 µM. Moreover, the “Unbound Fraction” value in data set [2] (setting [10]) was 2.1%^b.
As to `CC(C(=O)O)c1ccc(-c2ccccc2)c(F)c1` (stereo not drawn) [Flurbiprofen, reference compound], the Ki on human OAT3 [1] turned out to be 1800 nM; on human OAT1, 1910 nM.
Turning to `CN(CCOc1ccc(CC2SC(=O)NC2=O)cc1)c1ccccn1` (stereo not drawn) [Rosiglitazone, reference compound], the Ki at human OAT3 [1] stood at 590 nM; at human OAT1 it was 4200 nM.
The like results for `Cc1ccc(-c2cc(C(F)(F)F)nn2-c2ccc(S(N)(=O)=O)cc2)cc1` [Celecoxib, reference compound] were, in that order, > 200000 nM and > 200000 nM.
Consider `CSc1ccc(/C=C2/C(C)=C(CC(=O)O)c3cc(F)ccc32)cc1` [Sulindac sulfide], for which the Ki at human OAT3 [1] came to 660 nM; on human OAT1, 3680 nM. Moreover, in data set [2] (setting [9]), the Cmax was 22.6 µM. The “Unbound Fraction” value is listed as 6.01% in data set [2] (setting [9]) and 4.6% in data set [2] (setting [10]).
For the compound `Cc1ccc(C(=O)c2ccc(CC(=O)O)n2C)cc1` [Tolmetin, reference compound], the Ki came to 810 nM on human OAT3 [1] and 3010 nM on human OAT1.
Consider `NS(=O)(=O)c1ccc(-n2nc(C(F)(F)F)cc2-c2ccc(C(=O)O)cc2)cc1` [Celecoxib carboxylic acid], for which the Ki was 8430 nM on human OAT3 [5] and 262000 nM at human OAT1 (read-out: Ki (OAT1)). Besides, in data set [6], the “acidic pKa” value is recorded as 3.98.
On to `CC(C)c1nc(N(C)S(C)(=O)=O)nc(-c2ccc(F)cc2)c1/C=C/[C@@H](O)C[C@@H](O)CC(=O)O` [rosuvastatin], for which, in data set [7], the “renal clearance as share of total plasma clearance” value was 28% and the “share of renal clearance thought to result from OAT3-mediated tubular secretion” value is listed as 90%.
